The target in assay [1] is T1, estrogen receptor-alpha (ER) (Homo sapiens, UniProt P03372).
T1 sequence (P03372 1-595): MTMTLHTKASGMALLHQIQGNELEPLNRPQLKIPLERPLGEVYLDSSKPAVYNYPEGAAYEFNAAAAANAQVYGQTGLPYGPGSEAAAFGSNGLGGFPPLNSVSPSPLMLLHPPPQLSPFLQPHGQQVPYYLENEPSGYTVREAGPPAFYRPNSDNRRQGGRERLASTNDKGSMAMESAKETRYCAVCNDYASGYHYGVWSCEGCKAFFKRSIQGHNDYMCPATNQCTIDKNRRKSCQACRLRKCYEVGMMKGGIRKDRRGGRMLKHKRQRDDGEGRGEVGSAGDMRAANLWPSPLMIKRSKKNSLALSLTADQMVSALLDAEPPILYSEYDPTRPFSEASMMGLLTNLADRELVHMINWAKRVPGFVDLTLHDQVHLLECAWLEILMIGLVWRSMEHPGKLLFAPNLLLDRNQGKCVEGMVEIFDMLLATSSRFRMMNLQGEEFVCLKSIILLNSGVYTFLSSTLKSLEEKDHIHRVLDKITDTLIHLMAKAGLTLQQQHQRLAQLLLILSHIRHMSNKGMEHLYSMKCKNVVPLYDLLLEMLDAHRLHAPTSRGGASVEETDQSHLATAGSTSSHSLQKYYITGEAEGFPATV
Description: constitutive ER activity, ERE-TK-Luc reporter, in anti-estrogen resistant LCC9 cells. The class given is cell-based. On the set-up: LCC9 cells in 24-well dishes were transfected overnight with the ERE-TK-Luc reporter plasmid; endogenous in cells; host or cells: LCC9. Particulars: for pIC50: LCC9, no E2, 24 hr, read-out: IC50 for inhibition of ER activity in LCC9. The protocol: For MCF-7, luciferase activity is expressed as a fold-change relative to the no E2 control. For LCC9, luciferase activity is expressed relative to the control without the reporter present. Values plotted are means ± SEMs of four replicate wells. The data shown in each panel are representative of three independent experiments.
The cells were then treated with the indicated concentrations of the six bioactive compounds or vehicle only (DMSO) for 24-hr and assayed for luciferase activity. Luciferase activity is expressed as a percentage of the DMSO control. Values are means ± SEMs of four replicate wells. The data shown in each panel are representative of three independent experiments.
The cells were then harvested for luciferase assays. Luciferase activity was expressed as a fold-change relative to the no reporter control. Values plotted are means ± SEMs of four replicate wells. The data shown are representative of three independent experiments.
Subconfluent cells in 24-well dishes were transfected overnight with 0.25 μg of each indicated vector plus the ERE-TK-Luc reporter in serum-free DMEM containing Lipofectamine2000 (Life Technologies, Washington, DC). Total transfected DNA was kept constant by addition of control vector. The cells were washed, incubated in phenol red-free DMEM containing 5% charcoal-stripped serum (obtained from the Tissue Culture Shared Resource) (0.2 ml/well) ± E2 (10 nM) ± the indicated compound for 24-hr, and harvested for luciferase assays. For each assay condition was tested in quadrupicate. To monitor the transfection efficiency, cultures were co-transfected with plasmid pRSV-β-gal (Promega, Madison, WI) to visualize transfected cells by X-gal staining.

Assay [2] addresses T2, ER-β (Homo sapiens, UniProt Q92731).
T2 construct: host or cells: DU-145
Kind of assay: E2-stimulated ER-β activity, ERE-TK-Luc reporter in transfected DU-145 cells. The class given is cell-based. How it is done: Figure 12 Compound 35446 inhibits the activity of ER-β Subconfluent proliferating DU-145 cells in 24-well dishes were transfected overnight with the ER=α or ER=β expression vector plus the ERE-TK-Luc reporter plasmid (0.25 μg per plasmid/well), washed, and allowed to recover for several hours in fresh culture medium. The cells were then post-incubated for 24 hr to allow gene expression, after which they were treated ± E2 (10 nM) and ± compound 35446 (20 μM) (or compound B2 as a negative control) for 24 hr and assayed for luciferase activity. Luciferase activity is expressed relative to the no E2 control. Values are means ± SEMs of four replicate wells. The data shown in each panel are representative of three independent experiments.
To determine the effect of compound on ER-β activity, an ER- β expression plasmid (cat. no.: 35562, Addgene, Cambridge) was co-transfected into ER- DU-145 human prostate carcinoma cells along with the ERE-TK-Luc reporter plasmid (0.25 μg of each plasmid) and the cells were incubated overnight to allow gene expression. The cells were then treated ± E2 (10 nM) and ± the indicated compound for 24-hr, and harvested for luciferase assays as above.

Structures are written as SMILES. pIC50: −log10 of the molar value. Some results are limits rather than exact numbers.

T2 sequence (Q92731 whole entry): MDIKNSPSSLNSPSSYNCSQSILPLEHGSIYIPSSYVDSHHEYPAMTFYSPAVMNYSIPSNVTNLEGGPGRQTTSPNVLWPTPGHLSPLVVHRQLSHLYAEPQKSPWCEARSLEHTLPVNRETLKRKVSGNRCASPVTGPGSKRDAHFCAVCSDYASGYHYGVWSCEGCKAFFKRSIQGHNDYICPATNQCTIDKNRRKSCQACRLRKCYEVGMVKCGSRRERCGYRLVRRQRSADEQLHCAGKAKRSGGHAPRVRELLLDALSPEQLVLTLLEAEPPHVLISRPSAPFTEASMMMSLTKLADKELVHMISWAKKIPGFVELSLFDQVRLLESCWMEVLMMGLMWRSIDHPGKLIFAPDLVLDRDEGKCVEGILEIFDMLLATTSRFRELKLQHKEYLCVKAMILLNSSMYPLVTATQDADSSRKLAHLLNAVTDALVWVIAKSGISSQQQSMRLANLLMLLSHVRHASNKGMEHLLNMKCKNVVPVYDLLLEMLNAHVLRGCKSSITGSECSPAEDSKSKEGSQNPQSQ

`O=C(c1cc(Br)ccc1O)c1cc(Br)ccc1O` [4631-P/1]: in assay [1] (LCC9, 24 hr, Tam 5 μM in b8), the “effect on ER activity in LCC9 cells, single agent” value is on record as “inhibited ER activity in LCC9 cells”. Moreover, in assay [1], the pIC50 was at least 6.00. The “ER activity in LCC9 cells, compound combined with Tam” value in assay [1] (compound plus Tam compared with compound alone, 24 hr) is “significantly lower ER activity than 4631-P/1 alone”.

With `O=C(CC(c1ccccc1)N1CCCCC1)c1ccccc1` (stereo not drawn) [35446-L/1, 1,3-diphenyl-3-(piperidin-1-yl)propan-1-one], the inhibition at 20 µM in assay [2] (DU-145, read-out: inhibition of E2-stimulated ER-β activity) is about 67%. For the same compound, the pIC50 was 5.70 in assay [2] (DU-145 transfected with ER-β, E2 10 nM, 24 hr, read-out: IC50 for inhibition of ER-β activity) and at least 6.00 in assay [1].

The record behind these values is publication PMC4747340, “A new class of small molecule estrogen receptor-alpha antagonists that overcome anti-estrogen resistance” (Oncotarget, 2015).
